# Assay results as given in paper PMC12638379, “An innovative approach to development of new pyrazolylquinolin-2-one hybrids as dual EGFR and BRAF^V600E inhibitors” (Molecular Diversity, 2025).
# Read-outs that look alike come from different tables or passages of the source.
# Test system: NCI 60 cancer cell lines
# Assay: NCI anticancer screening over a panel of 60 cancer cells, single concentration 10 µM
# Assay type: cell-based, human
# Conditions: Homo sapiens, read-out: Growth inhibition (GI %)
# Procedure: Ten final compounds 4a–j and five intermediates 2a–e have been selected by the National Cancer Institute (NCI) for anticancer screening over a panel of 60 cancer cells that cover a variety of histological tissues, including the central nervous system, leukemia, lung, colon, kidney, ovary, breast, and prostate, using the protocol established by the National Cancer Institute (NCI). In a primary screening, each compound was screened at a concentration of 10 µM.
# Compounds 2a-e and 4a-j were selected by the National Cancer Institute (NCI) according to the protocol of the Compound Evaluation Branch of the National Cancer Institute, Bethesda, USA, for in vitro anticancer screening which refers in turn to apoptotic activity. The methodology of the NCI anticancer screening has been described in detail elsewhere (http://www.dtp.nci.nih.gov).
structure (smiles),measurement,setting,value
"CC(=O)c1cnn(-c2cc(=O)[nH]c3ccccc23)c1C [Compound 2a, 4-(4-Acetyl-5-methyl-1H-pyrazol-1-yl)quinolin-2(1H)-one]",inhibition at 10 µM,"786-0, Renal cancer 786-0, 10 μM",< 5%
same,inhibition at 10 µM,"A498, Renal cancer A498, 10 μM",< 5%
same,inhibition at 10 µM,"A549, Non-small cell lung cancer A549/ATCC, 10 μM",5.98%
same,inhibition at 10 µM,"ACHN, Renal cancer ACHN, 10 μM",7.82%
same,inhibition at 10 µM,"BT-549, Breast cancer BT-549, 10 μM",6.06%
same,inhibition at 10 µM,"CAKI-1, Renal cancer CAKI-1, 10 μM",21.5%
same,inhibition at 10 µM,"CCRF-CEM, Leukemia CCRF-CEM, 10 μM",11.3%
same,inhibition at 10 µM,"COLO 205, Colon cancer COLO 205, 10 μM",< 5%
same,inhibition at 10 µM,"DU-145, Prostate cancer DU-145, 10 μM",< 5%
same,inhibition at 10 µM,"EKVX, Non-small cell lung cancer EKVX, 10 μM",54.4%
same,inhibition at 10 µM,"HCC 2998, Colon cancer HCC-2998, 10 μM",< 5%
same,inhibition at 10 µM,"HCT-15, Colon cancer HCT-15, 10 μM",< 5%
same,inhibition at 10 µM,"HCT-116, Colon cancer HCT-116, 10 μM",< 5%
same,inhibition at 10 µM,"HL-60, Leukemia HL-60(TB), 10 μM",6.26%
same,inhibition at 10 µM,"HOP-62, Non-small cell lung cancer HOP-62, 10 μM",22.9%
same,inhibition at 10 µM,"HOP-92, Non-small cell lung cancer HOP-92, 10 μM",25.1%
same,inhibition at 10 µM,"HT-29, Colon cancer HT29, 10 μM",< 5%
same,inhibition at 10 µM,"Hs-578T, Breast cancer HS 578T, 10 μM",8.26%
same,inhibition at 10 µM,"IGROV-1, Ovarian cancer IGROV1, 10 μM",37.9%
same,inhibition at 10 µM,"K562, Leukemia K-562, 10 μM",9.72%
same,inhibition at 10 µM,"KM12, Colon cancer KM12, 10 μM",< 5%
same,inhibition at 10 µM,"LOX IMVI, Melanoma LOX IMVI, 10 μM",15.6%
same,inhibition at 10 µM,"Leukemia SR, 10 μM",5.8%
same,inhibition at 10 µM,"MCF7, Breast cancer MCF7, 10 μM",17.3%
same,inhibition at 10 µM,"MDA-MB-231, Breast Cancer MDA-MB 231/ATCC, 10 μM",26.9%
same,inhibition at 10 µM,"MDA-MB-435, Melanoma MDA-MB-435, 10 μM",< 5%
same,inhibition at 10 µM,"MDA-MB-468, Breast cancer MDA-MB-468, 10 μM",< 5%
same,inhibition at 10 µM,"MOLT-4, Leukemia MOLT-4, 10 μM",7.63%
same,inhibition at 10 µM,"Malme-3M, Melanoma MALME-3M, 10 μM",11.3%
same,inhibition at 10 µM,"Melanoma M14, 10 μM",< 5%
same,inhibition at 10 µM,"NCI-H23, Non-small cell lung cancer NCI-H23, 10 μM",10.3%
same,inhibition at 10 µM,"NCI-H226, Non-small cell lung cancer NCI-H226, 10 μM",32.4%
same,inhibition at 10 µM,"NCI-H322M, Non-small cell lung cancer NCI-H322M, 10 μM",16.1%
same,inhibition at 10 µM,"NCI-H460, Non-small cell lung cancer NCI-H460, 10 μM",< 5%
same,inhibition at 10 µM,"NCI-H522, Non-small cell lung cancer NCI-H522, 10 μM",10.3%
same,inhibition at 10 µM,"NCI/ADR-RES, Ovarian cancer NCI/ADR-RES, 10 μM",8.35%
same,inhibition at 10 µM,"OVCAR-3, Ovarian cancer OVCAR-3, 10 μM",< 5%
same,inhibition at 10 µM,"OVCAR-4, Ovarian cancer OVCAR-4, 10 μM",< 5%
same,inhibition at 10 µM,"OVCAR-5, Ovarian cancer OVCAR-5, 10 μM",< 5%
same,inhibition at 10 µM,"OVCAR-8, Ovarian cancer OVCAR-8, 10 μM",< 5%
same,inhibition at 10 µM,"Prostate cancer PC-3, 10 μM",15.2%
same,inhibition at 10 µM,"RPMI-8226, Leukemia RPMI-8226, 10 μM",26.6%
same,inhibition at 10 µM,"RXF 393, Renal cancer RXF 393, 10 μM",< 5%
same,inhibition at 10 µM,"SF-268, CNS Cancer SF-268, 10 μM",< 5%
same,inhibition at 10 µM,"SF-295, CNS Cancer SF-295, 10 μM",6.24%
same,inhibition at 10 µM,"SF-539, CNS Cancer SF-539, 10 μM",13%
same,inhibition at 10 µM,"SK-MEL-2, Melanoma SK-MEL-2, 10 μM",< 5%
same,inhibition at 10 µM,"SK-MEL-5, Melanoma SK-MEL-5, 10 μM",11.9%
same,inhibition at 10 µM,"SK-MEL-28, Melanoma SK-MEL-28, 10 μM",< 5%
same,inhibition at 10 µM,"SK-OV-3, Ovarian cancer SK-OV-3, 10 μM",20%
same,inhibition at 10 µM,"SN12C, Renal cancer SN12C, 10 μM",8.07%
same,inhibition at 10 µM,"SNB-19, CNS Cancer SNB-19, 10 μM",11.4%
same,inhibition at 10 µM,"SNB-75, CNS Cancer SNB-75, 10 μM",< 5%
same,inhibition at 10 µM,"SW-620, Colon cancer SW-620, 10 μM",< 5%
same,inhibition at 10 µM,"T47D, Breast cancer T-47D, 10 μM",16.9%
same,inhibition at 10 µM,"TK-10, Renal cancer TK-10, 10 μM",< 5%
same,inhibition at 10 µM,"U-251, CNS Cancer U251, 10 μM",8.86%
same,inhibition at 10 µM,"UACC-62, Melanoma UACC-62, 10 μM",19.5%
same,inhibition at 10 µM,"UACC-257, Melanoma UACC-257, 10 μM",< 5%
same,inhibition at 10 µM,"UO-31, Renal cancer UO-31, 10 μM",38.3%
